From ChEMBL document CHEMBL3217526, “Bioguided discovery and pharmacophore modeling of the mycotoxic indole diterpene alkaloids penitrems as breast cancer proliferation, migration, and invasion inhibitors” (Medchemcomm, 2013)

Key:
MDA-MB-468 = assay: Cytotoxicity against human MDA-MB-468 cells assessed as growth inhibition at 10 uM; assay type: functional; conditions: read-out: GI
T47D = assay: Cytotoxicity against human T47D cells assessed as growth inhibition at 10 uM; assay type: functional; conditions: read-out: GI
BT-549 = assay: Cytotoxicity against human BT549 cells assessed as growth inhibition at 10 uM; assay type: functional; conditions: read-out: GI
[1] = Cytotoxicity against human Hs578T cells assessed as growth inhibition at 10 uM; assay type: functional; conditions: Hs-578T, read-out: GI
MDA-MB-231 [2] = assay: Cytotoxicity against human MDA-MB-231 cells assessed as growth inhibition at 10 uM; assay type: functional; conditions: read-out: GI
DU-145 = assay: Cytotoxicity against human DU145 cells assessed as growth inhibition at 10 uM; assay type: functional; conditions: read-out: GI
PC-3 = assay: Cytotoxicity against human PC3 cells assessed as growth inhibition at 10 uM; assay type: functional; conditions: read-out: GI
[3] = Cytotoxicity against human UO31 cells assessed as growth inhibition at 10 uM; assay type: functional; conditions: UO-31, read-out: GI
TK-10 = assay: Cytotoxicity against human TK10 cells assessed as growth inhibition at 10 uM; assay type: functional; conditions: read-out: GI
SN12C = assay: Cytotoxicity against human SN12C cells assessed as growth inhibition at 10 uM; assay type: functional; conditions: read-out: GI
RXF 393 = assay: Cytotoxicity against human RXF393 cells assessed as growth inhibition at 10 uM; assay type: functional; conditions: read-out: GI
ACHN = assay: Cytotoxicity against human ACHN cells assessed as growth inhibition at 10 uM; assay type: functional; conditions: read-out: GI
786-0 = assay: Cytotoxicity against human 786-0 cells assessed as growth inhibition at 10 uM; assay type: functional; conditions: read-out: GI
SK-OV-3 = assay: Cytotoxicity against human SKOV3 cells assessed as growth inhibition at 10 uM; assay type: functional; conditions: read-out: GI
[4] = Cytotoxicity against human NCI-ADR-RES cells assessed as growth inhibition at 10 uM; assay type: functional; conditions: read-out: GI
[5] = Cytotoxicity against human OVCAR8 cells assessed as growth inhibition at 10 uM; assay type: functional; conditions: OVCAR-8, read-out: GI
[6] = Cytotoxicity against human OVCAR5 cells assessed as growth inhibition at 10 uM; assay type: functional; conditions: OVCAR-5, read-out: GI
[7] = Cytotoxicity against human OVCAR4 cells assessed as growth inhibition at 10 uM; assay type: functional; conditions: OVCAR-4, read-out: GI
[8] = Cytotoxicity against human OVCAR3 cells assessed as growth inhibition at 10 uM; assay type: functional; conditions: OVCAR-3, read-out: GI
IGROV-1 = assay: Cytotoxicity against human IGROV1 cells assessed as growth inhibition at 10 uM; assay type: functional; conditions: read-out: GI
[9] = Cytotoxicity against human UACC62 cells assessed as growth inhibition at 10 uM; assay type: functional; conditions: UACC-62, read-out: GI
[10] = Cytotoxicity against human UACC257 cells assessed as growth inhibition at 10 uM; assay type: functional; conditions: UACC-257, read-out: GI
SK-MEL-5 = assay: Cytotoxicity against human SK-MEL-5 cells assessed as growth inhibition at 10 uM; assay type: functional; conditions: read-out: GI
SK-MEL-2 = assay: Cytotoxicity against human SK-MEL-2 cells assessed as growth inhibition at 10 uM; assay type: functional; conditions: read-out: GI
SK-MEL-28 = assay: Cytotoxicity against human SK-MEL-28 cells assessed as growth inhibition at 10 uM; assay type: functional; conditions: read-out: GI
MDA-MB-435 = assay: Cytotoxicity against human MDA-MB-435 cells assessed as growth inhibition at 10 uM; assay type: functional; conditions: read-out: GI
Malme-3M = assay: Cytotoxicity against human MALME-3M cells assessed as growth inhibition at 10 uM; assay type: functional; conditions: read-out: GI
M14 = assay: Cytotoxicity against human M14 cells assessed as growth inhibition at 10 uM; assay type: functional; conditions: read-out: GI
LOX IMVI = assay: Cytotoxicity against human LOXIMVI cells assessed as growth inhibition at 10 uM; assay type: functional; conditions: read-out: GI
U-251 = assay: Cytotoxicity against human U251 cells assessed as growth inhibition at 10 uM; assay type: functional; conditions: read-out: GI
SNB-75 = assay: Cytotoxicity against human SNB75 cells assessed as growth inhibition at 10 uM; assay type: functional; conditions: read-out: GI
SNB-19 = assay: Cytotoxicity against human SNB19 cells assessed as growth inhibition at 10 uM; assay type: functional; conditions: read-out: GI
SF-539 = assay: Cytotoxicity against human SF539 cells assessed as growth inhibition at 10 uM; assay type: functional; conditions: read-out: GI
SF-268 = assay: Cytotoxicity against human SF268 cells assessed as growth inhibition at 10 uM; assay type: functional; conditions: read-out: GI
SW-620 = assay: Cytotoxicity against human SW620 cells assessed as growth inhibition at 10 uM; assay type: functional; conditions: read-out: GI
KM12 = assay: Cytotoxicity against human KM12 cells assessed as growth inhibition at 10 uM; assay type: functional; conditions: read-out: GI
HT-29 = assay: Cytotoxicity against human HT-29 cells assessed as growth inhibition at 10 uM; assay type: functional; conditions: read-out: GI
[11] = Cytotoxicity against human HCT15 cells assessed as growth inhibition at 10 uM; assay type: functional; conditions: HCT-15, read-out: GI
HCT-116 = assay: Cytotoxicity against human HCT116 cells assessed as growth inhibition at 10 uM; assay type: functional; conditions: read-out: GI
HCC 2998 = assay: Cytotoxicity against human HCC2998 cells assessed as growth inhibition at 10 uM; assay type: functional; conditions: read-out: GI
COLO 205 = assay: Cytotoxicity against human COLO205 cells assessed as growth inhibition at 10 uM; assay type: functional; conditions: read-out: GI
NCI-H522 = assay: Cytotoxicity against human NCI-H522 cells assessed as growth inhibition at 10 uM; assay type: functional; conditions: read-out: GI
NCI-H460 = assay: Cytotoxicity against human NCI-H460 cells assessed as growth inhibition at 10 uM; assay type: functional; conditions: read-out: GI
NCI-H322M = assay: Cytotoxicity against human NCI-H322M cells assessed as growth inhibition at 10 uM; assay type: functional; conditions: read-out: GI
NCI-H23 = assay: Cytotoxicity against human NCI-H23 cells assessed as growth inhibition at 10 uM; assay type: functional; conditions: read-out: GI
NCI-H226 = assay: Cytotoxicity against human NCI-H226 cells assessed as growth inhibition at 10 uM; assay type: functional; conditions: read-out: GI
HOP-62 = assay: Cytotoxicity against human HOP62 cells assessed as growth inhibition at 10 uM; assay type: functional; conditions: read-out: GI
A549 = assay: Cytotoxicity against human A549 cells assessed as growth inhibition at 10 uM; assay type: functional; conditions: read-out: GI
[12] = Cytotoxicity against human EKVX cells assessed as growth inhibition at 10 uM; assay type: functional; conditions: read-out: GI
SR = assay: Cytotoxicity against human SR cells assessed as growth inhibition at 10 uM; assay type: functional; conditions: read-out: GI
MOLT-4 = assay: Cytotoxicity against human MOLT4 cells assessed as growth inhibition at 10 uM; assay type: functional; conditions: read-out: GI
RPMI-8226 = assay: Cytotoxicity against human RPMI8226 cells assessed as growth inhibition at 10 uM; assay type: functional; conditions: read-out: GI
K562 = assay: Cytotoxicity against human K562 cells assessed as growth inhibition at 10 uM; assay type: functional; conditions: read-out: GI
CCRF-CEM = assay: Cytotoxicity against human CCRF-CEM cells assessed as growth inhibition at 10 uM; assay type: functional; conditions: read-out: GI
HL-60(TB) = assay: Cytotoxicity against human HL-60(TB) cells assessed as growth inhibition at 10 uM; assay type: functional; conditions: read-out: GI
Caenorhabditis elegans [13] = assay: Toxicity in L1 stage Caenorhabditis elegans N2 assessed as viability and reproduction at 50 uM; assay type: organism-based; conditions: in vivo
Caenorhabditis elegans [14] = assay: Toxicity in L1 stage Caenorhabditis elegans N2 assessed as viability and reproduction at 10 uM; assay type: organism-based; conditions: in vivo
MDA-MB-231 [15] = assay: Antiinvasive activity against human MDA-MB-231 cells assessed as inhibition of cell invasion at 15 uM after 24 hrs by BME Cell invasion assay kit; assay type: functional; conditions: MDA-MB-231, 24 h
MDA-MB-231 [16] = assay: Antimigratory activity in human MDA-MB-231 cells after 24 hrs by wound healing assay; assay type: functional, cell-based; conditions: MDA-MB-231, 24 h
MDA-MB-231 [17] = assay: Antiproliferative activity against human MDA-MB-231 cells after 72 hrs by MTT assay; assay type: functional, cell-based; conditions: MDA-MB-231, 72 h
MCF7 = assay: Antiproliferative activity against human MCF7 cells after 72 hrs by MTT assay; assay type: functional, cell-based; conditions: MCF7, 72 h

SMILES: C=C1Cc2ccc3[nH]c4c5c3c2[C@H]2[C@@H]1C[C@@H]2C(C)(C)O[C@H]5[C@@H]1CC[C@@]2(O)[C@@]35O[C@@H]3[C@@H](O)[C@@H](C(=C)C)O[C@H]5CC[C@]2(C)[C@@]41C [PENITREM B]
- inhibition of growth at 10 µM (MDA-MB-468): 60.7%
- inhibition of growth at 10 µM (T47D): 64.5%
- inhibition of growth at 10 µM (BT-549): 63.7%
- inhibition of growth at 10 µM [1]: 42.4%
- inhibition of growth at 10 µM (MDA-MB-231 [2]): 77.8%
- inhibition of growth at 10 µM (DU-145): 64.4%
- inhibition of growth at 10 µM (PC-3): 27.8%
- inhibition of growth at 10 µM [3]: 11.5%
- inhibition of growth at 10 µM (TK-10): 84%
- inhibition of growth at 10 µM (SN12C): 38.6%
- inhibition of growth at 10 µM (RXF 393): 70.3%
- inhibition of growth at 10 µM (ACHN): 59.3%
- inhibition of growth at 10 µM (786-0): 70.3%
- inhibition of growth at 10 µM (SK-OV-3): 90.3%
- inhibition of growth at 10 µM [4]: 56.7%
- inhibition of growth at 10 µM [5]: 71.4%
- inhibition of growth at 10 µM [6]: 102%
- inhibition of growth at 10 µM [7]: 66.3%
- inhibition of growth at 10 µM [8]: 48.8%
- inhibition of growth at 10 µM (IGROV-1): 54.9%
- inhibition of growth at 10 µM [9]: 76.8%
- inhibition of growth at 10 µM [10]: 44.7%
- inhibition of growth at 10 µM (SK-MEL-5): 61.1%
- inhibition of growth at 10 µM (SK-MEL-2): 87.8%
- inhibition of growth at 10 µM (SK-MEL-28): 94.1%
- inhibition of growth at 10 µM (MDA-MB-435): 33.9%
- inhibition of growth at 10 µM (Malme-3M): 67.4%
- inhibition of growth at 10 µM (M14): 34.5%
- inhibition of growth at 10 µM (LOX IMVI): 39.5%
- inhibition of growth at 10 µM (U-251): 66.3%
- inhibition of growth at 10 µM (SNB-75): 68.2%
- inhibition of growth at 10 µM (SNB-19): 71.8%
- inhibition of growth at 10 µM (SF-539): 89.8%
- inhibition of growth at 10 µM (SF-268): 49.2%
- inhibition of growth at 10 µM (SW-620): 64.1%
- inhibition of growth at 10 µM (KM12): 40.9%
- inhibition of growth at 10 µM (HT-29): 38.4%
- inhibition of growth at 10 µM [11]: 74.3%
- inhibition of growth at 10 µM (HCT-116): 25.3%
- inhibition of growth at 10 µM (HCC 2998): 107%
- inhibition of growth at 10 µM (COLO 205): 76.5%
- inhibition of growth at 10 µM (NCI-H522): 78.5%
- inhibition of growth at 10 µM (NCI-H460): 50.6%
- inhibition of growth at 10 µM (NCI-H322M): 48.2%
- inhibition of growth at 10 µM (NCI-H23): 73.2%
- inhibition of growth at 10 µM (NCI-H226): 82.3%
- inhibition of growth at 10 µM (HOP-62): 94%
- inhibition of growth at 10 µM (A549): 43.1%
- inhibition of growth at 10 µM [12]: 63%
- inhibition of growth at 10 µM (SR): 45.9%
- inhibition of growth at 10 µM (MOLT-4): 36.4%
- inhibition of growth at 10 µM (RPMI-8226): 20.4%
- inhibition of growth at 10 µM (K562): 19.9%
- inhibition of growth at 10 µM (CCRF-CEM): 21.3%
- inhibition of growth at 10 µM (HL-60(TB)): 29%
- Activity (Caenorhabditis elegans [13]): Non-toxic
- Activity (Caenorhabditis elegans [14]): Non-toxic
- inhibition at 15 µM (MDA-MB-231 [15]): 40%
- IC50 (MDA-MB-231 [16]): 10.3 µM
- IC50 (MDA-MB-231 [17]): 13.7 µM
- IC50 (MCF7): 5.5 µM
